“Also recorded” adds a separate entry of the source.
Key:
Type in all cases: in vivo
Bax = assay: IHC assay of apoptosis-related factor Bax in testis of rats exposed to ZEA; conditions: rat testis
From the text: (§1) As described herein, the therapeutic efficacy of the encapsulated RSV nanoparticles can be evaluated based on immunohistochemical assessment of apoptosis-related factors (Bax and Bcl-2) in the testis and the gene expression of constitutive androstane receptor (CAR), a well-known xenobiotic-sensing nuclear receptor in the liver, of rats exposed to a fungal mycotoxin, zearalenone (ZEA). The encapsulated RSV nanoparticles reversed the toxic effects of the mycotoxin, as reflected by intense Bcl-2 immunoreactivity and negligible Bax immunoreactivity. Further, the expression of the CAR gene was enhanced by treatment with the present RSV nanoparticles.
(§2) IHC assay was conducted to estimate the toxic impact of ZEA and the ameliorative effect of RSV and its nano-formulation on the expression of apoptosis-related factors (Bax and Bcl-2).

Bcl-2 = assay: IHC assay of apoptosis-related factor Bcl-2 in testis of rats exposed to ZEA; conditions: rat testis
From the text: as §1
(§3) Testes sections stained immunohistochemically against Bcl-2 was noticeably higher (brown color) in control group that received distilled water (FIG. 5A), compared with the group that received 0.1 mg/kg of ZEA that have almost no Bcl-2 immunoreactivity (FIG. 5B). […] High Bcl-2 immunoreactivity was detected in the groups that received 10 mg/kg RSV or 10 mg/kg RSV NPs (FIGS. 5E and 5F).

[1] = system: apoptosis-related factors (Bax and Bcl-2); assay: Overall immunohistochemical assessment of apoptosis-related factors (Bax and Bcl-2), mycotoxin-induced apoptosis in rat testis; conditions: testis of rats exposed to ZEA and treated
From the text: as §1, §2
as §3, with “5F). […]” for “5F).”

[2] = 0.1 mg/kg ZEA + 10 mg/kg treatment
[3] = 10 mg/kg alone, no ZEA, 10 mg/kg

SMILES	Bax immunoreactivity (Bax; 0.1 mg/kg ZEA alone)	Bcl-2 immunoreactivity (Bcl-2; 0.1 mg/kg ZEA alone, 0.1 mg/kg)	Bax immunoreactivity (Bax; [2])	Bax immunoreactivity (Bax; [3])	Bcl-2 immunoreactivity (Bcl-2; [2])	Bcl-2 immunoreactivity (Bcl-2; [3])	effect on apoptosis induced by the mycotoxin (expression of Bax and Bcl-2 factors) [1]
C[C@H]1CCCC(=O)CCC/C=C/c2cc(O)cc(O)c2C(=O)O1 [ZEA, zearalenone]	intense	weak and almost no	–	–	–	–	–
Oc1ccc(C=Cc2cc(O)cc(O)c2)cc1 [RSV, Resveratrol]	–	–	moderate to low	negative; also recorded: Almost no	moderate	intense and High	effectively reduced

— patent US12521353B1, “Encapsulated resveratrol (RSV) nanoparticles” (priority 2024, dated 2026)
